Entries after “also recorded” stand apart in the source; their conditions may differ. Read-outs that look alike come from different tables or passages of the source.
Assays:
[1] = test system: alcohol withdrawal; conditions: literature (Myrick 1998; Karam-Hage 2000; Minuk 1995); cited from earlier work
[2] = test system: ethanol drinking (lever presses for ethanol cocktail); experiment: rat model of alcohol self-administration (operant lever pressing for 10% ethanol cocktail); conditions: for effect on naltrexone's ability to decrease drinking when coadministered: coadministered with naltrexone, conclusion of Example 1; for ED50: Rattus norvegicus; for Lever Presses (Mean ± SEM): 30 min session
Procedure: Male Wistar rats (starting weight of 200±30 grams; Charles River Laboratories, MA) were individually housed with free access to food and water. […] These conditions were recorded once daily throughout the study.
Animals were trained daily in an operant chamber to press a lever to receive access to an ethanol cocktail as a reinforcer using a saccharin fading procedure. […] The final ethanol cocktail contained 10% ethanol in 0.04% saccharine. Each session lasted 30 minutes, during which the rat could press the lever twice to gain access to 0.1 mL of the ethanol cocktail. The operant chamber (Coulbourn Instruments, Allentown, Pa.) is a computer-controlled automated system which recorded the number of lever presses completed by a rat. At the end of the training period (6-8 weeks), rats which consistently drank a sufficient quantity of ethanol to produce a pharmacological effect (minimum intake of 0.6 g/kg/hour) were selected to participate in the drug studies. These trained rats were used repeatedly throughout these studies to control for intra-subject variability. All drugs were administered acutely with a minimum of a 2 day drug washout period.
Naltrexone was prepared daily in 0.9% saline and administered subcutaneously (SC). The anticonvulsants (gabapentin, carbamazepine, levetiracetam and lamotrigine) were suspended in 3% carboxymethyl cellulose; a total volume of 1 mL/kg of this suspension was delivered orally (PO) to the rat using a gavage tube.
The ability of naltrexone to reduce ethanol drinking (i.e., decrease the number of lever presses) was assessed in this animal model of self administration of ethanol. […] The total number of lever presses was recorded over the 30 minute test session. […] An anticonvulsant (gabapentin, carbamazepine, levetiracetam or lamotrigine) was coadministered with naltrexone to determine if it affected naltrexone's ability to decrease ethanol drinking. […] This dose allows one to determine if the co-administered drugs impaired or enhanced naltrexone's effect on ethanol drinking. The anticonvulsants were administered orally 30 minutes prior to a naltrexone injection (SC) (i.e., 60 minutes prior to the beginning of the ethanol drinking test session). The number of lever presses for the ethanol cocktail was recorded at the end of the 30 minute session.

[3] = test system: audiogenic-induced convulsions; experiment: audiogenic-induced convulsions in mouse model of alcohol withdrawal
Procedure: These conditions were recorded once daily throughout the study.
Alcohol is provided in a nutritionally balanced liquid diet.

[4] = pharmacokinetic study: naltrexone in plasma alone or coadministered with gabapentin; type: in vivo, rat; conditions: vehicle+naltrexone vs gabapentin+naltrexone (gabapentin 1 mg/kg, naltrexone 0.5 mg/kg), rats
Procedure: FIG. 3C is a line graph showing the amount of naltrexone in the plasma over a period of time for naltrexone administered alone or naltrexone coadministered with gabapentin.
To determine if this drug interaction might be effective in decreasing ethanol drinking with lower doses of naltrexone, the dose of gabapentin (1 mg/kg) was kept constant and the dose of naltrexone varied from 0.05 to 3.0 mg/kg (FIG. 3B). […] To determine if gabapentin may be altering the plasma profile of naltrexone at this dose combination, a pharmacokinetic study was run in a separate cohort group of rats.

[5] = anticonvulsant 0.1 mg/kg PO + naltrexone 0.1 mg/kg SC
[6] = anticonvulsant 1.0 mg/kg PO + naltrexone 0.1 mg/kg SC
[7] = anticonvulsant 10.0 mg/kg PO + naltrexone 0.1 mg/kg SC

1-(aminomethyl)cyclohexane acetic acid [Gabapentin]
safety and efficacy as alternatives to benzodiazepines for the treatment of alcohol withdrawal [1]: safe and efficacious
effect on naltrexone's ability to decrease drinking when coadministered [2]: did not impair or block
enhancement of naltrexone's effect on alcohol drinking ([2]; coadministration of gabapentin, narrow therapeutic window): enhanced naltrexone's effects of alcohol drinking
ethanol drinking, combination compared to naltrexone alone ([2]; gabapentin 1 mg/kg PO plus naltrexone 0.5 mg/kg SC, p<0.006): further significant decrease
difference in number of lever presses, naltrexone alone vs combined with gabapentin ([2]; gabapentin 1 mg/kg constant, naltrexone 0.05 to 3.0 mg/kg, except at 0.5 mg/kg naltrexone): No differences
potentiation of naltrexone's decrease in ethanol drinking ([2]; gabapentin 0.1 and 10.0 mg/kg coadministered with naltrexone 0.5 mg/kg): not seen
effect on lever pressing for ethanol compared to non-drug treated conditions ([2]; gabapentin alone, 1 or 10 mg/kg): neither gabapentin at 1 or 10 mg/kg alone had any effect

CC[C@@H](C(N)=O)N1CCCC1=O (single isomer, unassigned) [Levetiracetam]
Number of Lever Presses (mean ± sem) ([2]; anticonvulsant 1.0 mg/kg PO + naltrexone 0.5 mg/kg SC): 34 ± 11
Number of Lever Presses (mean ± sem) ([2]; anticonvulsant 10.0 mg/kg PO + naltrexone 0.5 mg/kg SC): 36 ± 8
Number of Lever Presses (mean ± sem) ([2]; anticonvulsant 100.0 mg/kg PO + naltrexone 0.5 mg/kg SC): 34 ± 9
effect on naltrexone's ability to decrease drinking when coadministered [2]: did not impair or block
difference between naltrexone (with vehicle) and combination with naltrexone, lever presses ([2]; levetiracetam 1-100 mg/kg PO + naltrexone 0.5 mg/kg SC): no significant differences

NC(=O)N1c2ccccc2C=Cc2ccccc21 [Carbamazepine, 5H-dibenz [b,f] azepine-5-carboxamide]
Withdrawal Rating (mean ± sem), behavioral response scale of 1-4 ([3]; carbamazepine 10 mg/kg PO + saline): 1.1 ± 0.1
difference between drug groups on the audiogenic convulsion test ([3]; carbamazepine 10 mg/kg with/without naltrexone 3 mg/kg, p=0.18): no statistical differences
Number of Lever Presses (mean ± sem) [2, 5]: 68 ± 10
Number of Lever Presses (mean ± sem) [2, 6]: 49 ± 8
Number of Lever Presses (mean ± sem) [2, 7]: 48 ± 9
effect of combination with naltrexone on ethanol drinking ([2]; carbamazepine 0.1-10.0 mg/kg PO + naltrexone 0.1 mg/kg): did not significantly affect
effect on naltrexone's ability to decrease drinking when coadministered [2]: did not impair or block

Nc1nnc(-c2cccc(Cl)c2Cl)c(N)n1 [Lamotrigine, 6-(2,3-dichlorophenyl)-1,2,4-trizine-3,5-diamine]
Number of Lever Presses (mean ± sem) [2, 5]: 61 ± 13
Number of Lever Presses (mean ± sem) [2, 6]: 60 ± 13
Number of Lever Presses (mean ± sem) [2, 7]: 567 ± 10
effect on naltrexone's ability to decrease drinking when coadministered [2]: did not impair or block
effect of combination with naltrexone on number of lever presses for ethanol ([2]; lamotrigine 0.1-10 mg/kg PO + naltrexone 0.1 mg/kg SC): did not significantly affect

O=C1CC[C@@]2(O)[C@H]3Cc4ccc(O)c5c4[C@@]2(CCN3CC2CC2)[C@H]1O5 [Naltrexone]
exacerbation of audiogenic-induced convulsions ([3]; naltrexone 3 mg/kg with carbamazepine 10 mg/kg, mice with alcohol withdrawal symptoms): did not exacerbate
interaction with carbamazepine's anticonvulsant activity ([3]; naltrexone 3 mg/kg, carbamazepine 10 mg/kg): did not appear to interact
plasma profile of naltrexone, difference between treatment groups [4]: no statistical difference
ED50 ([2]; read-out: ED50 re-established): 0.1 mg/kg
ED50 ([2]; sc, read-out: ED50 (dose reducing lever responding for ethanol by approximately 50% compared to baseline)): 0.5 mg/kg
ED50 ([2]; sc, read-out: ED50 for decrease in number of lever presses): 0.1 to 0.5 mg/kg
decrease in lever presses vs baseline and vehicle control ([2]; lowest dose of naltrexone tested, 0.05 mg/kg): no significant decrease
dose dependence of decrease in number of lever presses ([2]; naltrexone 0-6 mg/kg SC): dose-dependent decrease
Approximate Absolute Ethanol Consumed ([2]; naltrexone 0.05 mg/kg SC): ~1.0 g/kg
Lever Presses (Mean ± SEM) ([2]; naltrexone 0.05 mg/kg SC): 132 ± 13.3
Approximate Absolute Ethanol Consumed ([2]; naltrexone 0.1 mg/kg SC): ~0.7 g/kg
Lever Presses (Mean ± SEM) ([2]; naltrexone 0.1 mg/kg SC): 88 ± 8.6
decrease in number of lever presses from the baseline ([2]; naltrexone 0.1 mg/kg, carbamazepine study): 42.4%
Approximate Absolute Ethanol Consumed ([2]; naltrexone 0.5 mg/kg SC): ~0.6 g/kg
Lever Presses (Mean ± SEM) ([2]; naltrexone 0.5 mg/kg SC): 83 ± 12.1
decrease in lever responding for ethanol compared to non-drug baseline ([2]; naltrexone 0.5 mg/kg SC, levetiracetam study): 65%
specificity of decrease in drinking for ethanol versus saccharine ([2]; naltrexone 0.5 mg/kg SC, 0.1% saccharine solution substituted for ethanol cocktail): specific for ethanol; also recorded: selective for decreasing ethanol drinking
Approximate Absolute Ethanol Consumed ([2]; naltrexone 1.0 mg/kg SC): ~0.3 g/kg
Lever Presses (Mean ± SEM) ([2]; naltrexone 1.0 mg/kg SC): 43 ± 8.6
Approximate Absolute Ethanol Consumed ([2]; naltrexone 3.0 mg/kg SC): ~0.2 g/kg
Lever Presses (Mean ± SEM) ([2]; naltrexone 3.0 mg/kg SC): 24 ± 8.1
Approximate Absolute Ethanol Consumed ([2]; naltrexone 6.0 mg/kg SC): ~0.2 g/kg
Lever Presses (Mean ± SEM) ([2]; naltrexone 6.0 mg/kg SC): 21 ± 5.5
effect on decreasing ethanol drinking at higher doses ([2]; naltrexone 3 and 6 mg/kg): appeared to plateau
decrease in number of lever presses for ethanol compared to non-drug baseline ([2]; naltrexone ED50 dose (0.5 mg/kg), gabapentin study): 54%
reduction in lever pressing for ethanol ([2]; naltrexone alone 0.5 mg/kg, additional testing, most of the animals): greater than 50%
decrease in lever responding for ethanol compared to non-drug baseline ([2]; naltrexone alone (0.1 mg/kg SC), lamotrigine study): 49%
Number of Lever Presses (mean ± sem) ([2]; vehicle (drug dose 0.0) PO + naltrexone 0.1 mg/kg SC, carbamazepine study): 67 ± 17
Number of Lever Presses (mean ± sem) ([2]; vehicle (drug dose 0.0) PO + naltrexone 0.1 mg/kg SC, lamotrigine study): 74 ± 18
Number of Lever Presses (mean ± sem) ([2]; vehicle (drug dose 0.0) PO + naltrexone 0.5 mg/kg SC, levetiracetam study): 50 ± 10

CCCC(CCC)C(=O)O [valproic acid, 2-propylpentanoic acid]
safety and efficacy as alternatives to benzodiazepines for the treatment of alcohol withdrawal [1]: safe and efficacious

Source: patent US20050245461A1, “Methods for treating alcoholism” (priority 2004, published 2005)
